Activity calls are given as the source filed them. The calls are words filed in the database; no cut-off is given here.
What was measured:
MDA-MB-231 [1] = test: Antiproliferative activity against human MDA-MB-231 cells by MTS assay; format: functional, cell-based
HT-29 [2] = test: Antiproliferative activity against human HT-29 cells by MTS assay; format: functional, cell-based
HT-29 [3] = test: Inhibition of microtubule formation in human HT-29 cells at 5 uM using Dm1a tubulin antibodies by confocal microscopy; format: cell-based
Tubulin (Homo sapiens) [4] = molecular target: T1, Tubulin (Homo sapiens) (UniProt P68371+Q9H4B7+P0DPH7+P68366+Q13509+Q71U36+P04350+Q3ZCM7+P07437+P68363+Q9BQE3+Q6PEY2+Q13885+Q9BVA1+Q9BUF5); test: Inhibition of tubulin (unknown origin) polymerization at 20 uM; format: protein-complex assay
HT-29 [5] = test: Cell cycle arrest in human HT-29 cells assessed as accumulation at G2/M phase at 5 uM by […]propidium iodide staining-based FACS analysis (reference value: 22.8 %); format: functional
HT-29 [6] = test: Cell cycle arrest in human HT-29 cells assessed as accumulation at S phase at 5 uM by […]propidium iodide staining-based FACS analysis (reference value: 13.6 %); format: functional
HT-29 [7] = test: Cell cycle arrest in human HT-29 cells assessed as accumulation at G1 phase at 5 uM by […]propidium iodide staining-based FACS analysis (reference value: 60.2 %); format: functional
HT-29 [8] = test: Cell cycle arrest in human HT-29 cells assessed as accumulation at G2/M phase at 1 uM by […]propidium iodide staining-based FACS analysis (reference value: 22.8 %); format: functional
HT-29 [9] = test: Cell cycle arrest in human HT-29 cells assessed as accumulation at S phase at 1 uM by […]propidium iodide staining-based FACS analysis (reference value: 13.6 %); format: functional
HT-29 [10] = test: Cell cycle arrest in human HT-29 cells assessed as accumulation at G1 phase at 1 uM by […]propidium iodide staining-based FACS analysis (reference value: 60.2 %); format: functional
HT-29 [11] = test: Cell cycle arrest in human HT-29 cells assessed as accumulation at G2/M phase at 100 nM by […]propidium iodide staining-based FACS analysis (reference value: 22.8 %); format: functional
HT-29 [12] = test: Cell cycle arrest in human HT-29 cells assessed as accumulation at S phase at 100 nM by […]propidium iodide staining-based FACS analysis (reference value: 13.6 %); format: functional
HT-29 [13] = test: Cell cycle arrest in human HT-29 cells assessed as accumulation at G1 phase at 100 nM by […]propidium iodide staining-based FACS analysis (reference value: 60.2 %); format: functional
MDA-MB-468 = test: Growth inhibition of human MDA-MB-468 cells; format: functional
[14] = Growth inhibition of human BT549 cells; format: functional; details: BT-549
T47D = test: Growth inhibition of human T47D cells; format: functional
MCF7 = test: Growth inhibition of human MCF7 cells; format: functional
MDA-MB-231 [15] = test: Growth inhibition of human MDA-MB-231 cells; format: functional
[16] = Growth inhibition of human Hs 578T cells; format: functional
PC-3 = test: Growth inhibition of human PC3 cells; format: functional
DU-145 = test: Growth inhibition of human DU145 cells; format: functional
TK-10 = test: Growth inhibition of human TK10 cells; format: functional
[17] = Growth inhibition of human UO31 cells; format: functional; details: UO-31
CAKI-1 = test: Growth inhibition of human CAKI-1 cells; format: functional
[18] = Growth inhibition of human RXF393 cells; format: functional; details: RXF 393
SN12C = test: Growth inhibition of human SN12C cells; format: functional
A498 = test: Growth inhibition of human A498 cells; format: functional
ACHN = test: Growth inhibition of human ACHN cells; format: functional
SK-OV-3 = test: Growth inhibition of human SKOV3 cells; format: functional
786-0 = test: Growth inhibition of human 786-0 cells; format: functional
[19] = Growth inhibition of human OVCAR5 cells; format: functional; details: OVCAR-5
[20] = Growth inhibition of human OVCAR8 cells; format: functional; details: OVCAR-8
[21] = Growth inhibition of human NCI-ADR-RES cells; format: functional
[22] = Growth inhibition of human OVCAR3 cells; format: functional; details: OVCAR-3
[23] = Growth inhibition of human OVCAR4 cells; format: functional; details: OVCAR-4
[24] = Growth inhibition of human UACC62 cells; format: functional; details: UACC-62
IGROV-1 = test: Growth inhibition of human IGROV1 cells; format: functional
SK-MEL-28 = test: Growth inhibition of human SK-MEL-28 cells; format: functional
SK-MEL-5 = test: Growth inhibition of human SK-MEL-5 cells; format: functional
[25] = Growth inhibition of human UACC257 cells; format: functional; details: UACC-257
MDA-MB-435 = test: Growth inhibition of human MDA-MB-435 cells; format: functional
SK-MEL-2 = test: Growth inhibition of human SK-MEL-2 cells; format: functional
Malme-3M = test: Growth inhibition of human MALME-3M cells; format: functional
M14 = test: Growth inhibition of human M14 cells; format: functional
SNB-75 = test: Growth inhibition of human SNB75 cells; format: functional
U-251 = test: Growth inhibition of human U251 cells; format: functional
[26] = Growth inhibition of human LOXIMVI cells; format: functional; details: LOX IMVI
[27] = Growth inhibition of human SF539 cells; format: functional; details: SF-539
SNB-19 = test: Growth inhibition of human SNB19 cells; format: functional
SF-268 = test: Growth inhibition of human SF268 cells; format: functional
SW-620 = test: Growth inhibition of human SW620 cells; format: functional
HT-29 [28] = test: Growth inhibition of human HT-29 cells; format: functional
KM12 = test: Growth inhibition of human KM12 cells; format: functional
[29] = Growth inhibition of human HCT15 cells; format: functional; details: HCT-15
HCT-116 = test: Growth inhibition of human HCT116 cells; format: functional
[30] = Growth inhibition of human HCC2998 cells; format: functional; details: HCC 2998
COLO 205 = test: Growth inhibition of human COLO205 cells; format: functional
NCI-H322M = test: Growth inhibition of human NCI-H322M cells; format: functional
NCI-H460 = test: Growth inhibition of human NCI-H460 cells; format: functional
NCI-H522 = test: Growth inhibition of human NCI-H522 cells; format: functional
NCI-H226 = test: Growth inhibition of human NCI-H226 cells; format: functional
NCI-H23 = test: Growth inhibition of human NCI-H23 cells; format: functional
[31] = Growth inhibition of human EKVX cells; format: functional
HOP-62 = test: Growth inhibition of human HOP62 cells; format: functional
[32] = Growth inhibition of human HOP92 cells; format: functional; details: HOP-92
SR = test: Growth inhibition of human SR cells; format: functional
A549 = test: Growth inhibition of human A549/ATCC cells; format: functional
RPMI-8226 = test: Growth inhibition of human RPMI8226 cells; format: functional
[33] = Growth inhibition of human MOLT4 cells; format: functional; details: MOLT-4
HL-60(TB) = test: Growth inhibition of human HL-60(TB) cells; format: functional
CCRF-CEM = test: Growth inhibition of human CCRF-CEM cells; format: functional
Tubulin (Homo sapiens) [34] = molecular target: T1, Tubulin (Homo sapiens); test: Induction of tubulin (unknown origin) polymerization at 5 uM; format: protein-complex assay

Compound: NC(=S)N1N=C(c2ccccn2)C[C@H]1c1ccccc1
- IC50 (MDA-MB-231 [1]): 140000 nM
- IC50 (HT-29 [2]): 350000 nM

Compound: COc1cc(C(=O)N2N=C(c3ccccn3)C[C@@H]2c2ccccc2)cc(OC)c1OC
- inhibition (HT-29 [3]): Active
- inhibition (Tubulin (Homo sapiens) [4]): Active
- Activity (HT-29 [5]): 94.8%
- Activity (HT-29 [6]): 2%
- Activity (HT-29 [7]): 2.3%
- Activity (HT-29 [8]): 49.7%
- Activity (HT-29 [9]): 10.3%
- Activity (HT-29 [10]): 38.5%
- Activity (HT-29 [11]): 88.8%
- Activity (HT-29 [12]): 2.8%
- Activity (HT-29 [13]): 7.9%
- GI50 (MDA-MB-468): 417 nM
- GI50 [14]: 5130 nM
- GI50 (T47D): > 100000 nM
- GI50 (MCF7): 324 nM
- GI50 (MDA-MB-231 [15]): 989 nM
- GI50 [16]: 9180 nM
- GI50 (PC-3): > 100000 nM
- GI50 (DU-145): 4260 nM
- GI50 (TK-10): > 100000 nM
- GI50 [17]: 5010 nM
- GI50 (CAKI-1): 493 nM
- GI50 [18]: 1030 nM
- GI50 (SN12C): 3530 nM
- GI50 (A498): 943 nM
- GI50 (ACHN): 4290 nM
- GI50 (SK-OV-3): 762 nM
- GI50 (786-0): 1540 nM
- GI50 [19]: 4010 nM
- GI50 [20]: 3280 nM
- GI50 [21]: 519 nM
- GI50 [22]: 719 nM
- GI50 [23]: 5950 nM
- GI50 [24]: 541 nM
- GI50 (IGROV-1): 7130 nM
- GI50 (SK-MEL-28): 1510 nM
- GI50 (SK-MEL-5): 432 nM
- GI50 [25]: > 100000 nM
- GI50 (MDA-MB-435): 273 nM
- GI50 (SK-MEL-2): 699 nM
- GI50 (Malme-3M): > 100000 nM
- GI50 (M14): 801 nM
- GI50 (SNB-75): 277 nM
- GI50 (U-251): 868 nM
- GI50 [26]: 1130 nM
- GI50 [27]: 1060 nM
- GI50 (SNB-19): 1890 nM
- GI50 (SF-268): 33400 nM
- GI50 (SW-620): 567 nM
- GI50 (HT-29 [28]): 431 nM
- GI50 (KM12): 711 nM
- GI50 [29]: 848 nM
- GI50 (HCT-116): 586 nM
- GI50 [30]: 2320 nM
- GI50 (COLO 205): 585 nM
- GI50 (NCI-H322M): > 100000 nM
- GI50 (NCI-H460): 505 nM
- GI50 (NCI-H522): 688 nM
- GI50 (NCI-H226): 1330 nM
- GI50 (NCI-H23): 3450 nM
- GI50 [31]: > 100000 nM
- GI50 (HOP-62): 1820 nM
- GI50 [32]: > 100000 nM
- GI50 (SR): 415 nM
- GI50 (A549): 952 nM
- GI50 (RPMI-8226): 66300 nM
- GI50 [33]: 4460 nM
- GI50 (HL-60(TB)): 747 nM
- GI50 (CCRF-CEM): 2080 nM
- IC50 (MDA-MB-231 [1]): 690 nM
- IC50 (HT-29 [2]): 2530 nM

Compound: O=C(N1N=C(c2ccccn2)CC1c1ccccc1)C(F)(F)F (configuration not stated)
- IC50 (MDA-MB-231 [1]): > 500000 nM
- IC50 (HT-29 [2]): > 500000 nM

Compound: COc1cc(C2CC(c3ccccn3)=NN2C(C)=O)cc(OC)c1OC (configuration not stated)
- IC50 (MDA-MB-231 [1]): 52500 nM
- IC50 (HT-29 [2]): > 500000 nM

Compound: COc1cc(C2CC(c3ccccn3)=NN2c2ccccc2)cc(OC)c1OC (configuration not stated)
- IC50 (MDA-MB-231 [1]): 4360 nM
- IC50 (HT-29 [2]): 26200 nM

Compound: COc1cc(C(=O)N2N=C(c3ccccn3)CC2c2cc(OC)c(OC)c(OC)c2)cc(OC)c1OC (configuration not stated)
- IC50 (MDA-MB-231 [1]): 11400 nM
- IC50 (HT-29 [2]): 22500 nM

Compound: CC(=O)O[C@H]1C(=O)[C@@]2(C)[C@H]([C@H](OC(=O)c3ccccc3)[C@]3(O)C[C@H](OC(=O)[C@H](O)[C@@H](NC(=O)c4ccccc4)c4ccccc4)C(C)=C1C3(C)C)[C@]1(OC(C)=O)CO[C@@H]1C[C@@H]2O
- Activity (Tubulin (Homo sapiens) [34]): Active

From ChEMBL document CHEMBL3217680, “Synthesis and antiproliferative activity of some 3-(pyrid-2-yl)-pyrazolines” (Medchemcomm, 2013)
